We go through four compounds from EP2718307B1, “BETA-HAIRPIN PEPTIDOMIMETICS AS CXC4 ANTAGONISTS” (Polyphor AG, priority 2011, dated 2012).

Where two headings read alike, the source gives them in different places. Bridge positions count the residues as written; N and C are the ends. Square brackets hold non-standard residues; d marks the D form. Peptide text beside a SMILES is read from it. Lys(iPr) = CC(C)NCCCC[C@H](N)C(=O)O; Orn(iPr) = CC(C)NCCC[C@H](N)C(=O)O

The target in data set [1] is T1, CXCR4 receptor (Homo sapiens, UniProt P61073).
T1 construct: Namalwa cells (CXCR4 natively expressing non-adherent cells, ATCC CRL-1432); host or cells: Namalwa cells
T1 sequence (P61073 whole entry): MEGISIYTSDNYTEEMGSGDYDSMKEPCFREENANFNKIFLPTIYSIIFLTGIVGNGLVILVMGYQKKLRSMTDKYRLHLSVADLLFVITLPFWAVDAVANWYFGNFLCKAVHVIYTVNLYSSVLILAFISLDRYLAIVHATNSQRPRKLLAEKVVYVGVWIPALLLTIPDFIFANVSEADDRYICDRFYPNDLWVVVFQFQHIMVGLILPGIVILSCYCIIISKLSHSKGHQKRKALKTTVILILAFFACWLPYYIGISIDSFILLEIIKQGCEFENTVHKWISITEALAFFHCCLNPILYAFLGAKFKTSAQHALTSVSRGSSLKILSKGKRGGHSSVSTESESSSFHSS
The data set is described as follows: Chemotactic assay (cell migration assay): response of Namalwa cells to an SDF-1 gradient. The format is cell-based. As for the experimental part: Namalwa cells (CXCR4 natively expressing non-adherent cells, ATCC CRL-1432) were cultured in RPMI1640 plus 10% FBS, and pen/strept. HELA cells were maintained in RPMI1640 plus 10% FBS, pen/strept and 2 mM L-glutamine. Cos-7 cells were grown in DMEM medium with […] glucose supplemented with 10% FCS, pen/strept and 2 mM L-glutamine. All cell lines were grown at 37 °C at 5% CO2. Cell media, media supplements, PBS-buffer, HEPES, antibiotic/antimycotic, pen/strept, non essential amino acid, L-glutamine, β-mercaptoethanol and sera were purchased from Gibco (Pailsey, UK). All fine chemicals were supplied by Merck (Darmstadt, Germany).
The chemotactic response of Namalwa cells (ATCC CRL-1432) to a gradient of stromal cell-derived factor 1α (SDF-1) was measured using a modified Boyden chamber chemotaxis system (ChemoTx; Neuroprobe). In this system, the upper chamber of each well is separated from the lower chamber containing the chemoattractant SDF-1 by a polycarbonate membrane (5µm pore size). A circular area of that membrane in the region that covers each lower well is enclosed by a hydrophobic mask to retain the cell suspension within this area. The system was prepared by loading the bottom wells with aliquots of […] chemotaxis medium (RPMI 1640 without Phenol red + 0.5% BSA) comprising either appropriate serial dilutions of peptides or no peptide at all in combination with SDF-1 (0.9 nM) or without the chemoattractant. The membrane was placed over the bottom wells, and aliquots of 50 µL of a suspension of Namalwa cells (3.6 x 10^6 cells/mL) in chemotaxis medium, premixed with chemotaxis medium comprising either appropriate serial dilutions of peptides or no peptide at all, was delivered onto each of the hydrophobically limited regions of the upper surface of the membrane. The cells were allowed to migrate into the bottom chamber for 5 h at 37 °C in 5% CO2. After this period, the membrane was removed and its topside was carefully wiped and washed with PBS to eliminate non-migrated cells. Migrated cells were transferred using a "funnel" adaptor to a receiving 96-well plate and the cell number was determined by using the CyQuant™ NF cell proliferation assay (Invitrogen) based on the measurement of cellular DNA content via fluorescent dye binding. Following the manufacturer's directions, 50 µL of CyQuant™ dye reagent/HBSS buffer (1/500 [v/v]) were added to each well of the above mentioned receiving 96-well plate. After incubation for 0.5 h at room temperature the plate was sealed and the fluorescence intensity of each sample was measured by using a Wallac 1420 VICTOR^2™ plate reader (PerkinElmer) with excitation at 485 nm and emission detection at 535 nm. Finally, the data were normalized by using the controls and IC50-values were determined using GraphPad Prism™ (GraphPad) by fitting a logarithmic curve to the averaged datapoints.

A short description of data set [2]: Drug loading calculations via maintenance dose rate (rate of infusion). The note with it: CLiv-mouse values scaled by 0.127 (GFR human/GFR mouse). As for the experimental part: The drug load for an implant comprising a peptide of the invention was calculated following the basic principles in pharmacokinetics (see also J. Gabrielsson, D. Weiner, "Pharmacokinetics and Pharmaco-dynamics Data Analysis: Concepts and Applications", 4th edition, Swedish Pharmaceutical Press, Stockholm, Sweden, 2006) whereby the maintainance dose rate (rate of infusion, Rin) can be defined as the rate at which a drug is to be administered to reach a steady state of a certain dose in the plasma. The maintainance dose rate can be expressed using the correlation Rin [g/(h*kg)] = CLiv[L/(h*kg)] x Css,eff [g/L], wherein CLiv is the clearance (i.v. - admin.) and Css,eff the effective concentration of the drug in the plasma at steady state considering an efficacy margin A: Css,eff [g/L] = A x (IC50/fu) x MW [(mol/L)*(g/mol)]. Therefore, the total amount of a drug loaded into an implant providing for a constant effective concentration of that drug in the plasma for a certain period of time in a subject of a certain body weight can be calculated by applying the following correlation: Drugload [g/subject] = Rin [g/(h*kg)] x duration[h] x BW [kg/subject]. [formula]
Further pre-conditions are an efficacy margin of A = 3, a study duration of 672 h (28 days) and a body weight of a human suject of 70 kg. The glomerular filtration rate (GFR) which mainly influences the clearance of the peptides is highly dependent on the species. In general, the GFR of humans is averaged to be 107 mL/(h*kg) compared to the GFR of mouse being 840 mL/(h*kg). Therefore, the CLiv-mouse values indicated in Table 5b were allometrically scaled by 107 mL/(h*kg)/840 mL/(h*kg) = 0.127 before employed in the above described correlations.

[3] abbreviates: Namalwa cells, SDF-1 0.9 nM, migration 5 h, read-out: IC50 [nM] ± SD, CXCR4 receptor.

Regarding `CC(C)NCCCC[C@@H]1NC(=O)[C@H](CCC(N)=O)NC(=O)[C@H](Cc2ccc(O)cc2)NC(=O)[C@@H]2CSSC[C@H](NC(=O)[C@H](Cc3ccc(O)cc3)NC(=O)[C@H](Cc3c[nH]cn3)NC(=O)[C@H](Cc3ccc(O)cc3)NC(=O)[C@@H]3CCCN3C(=O)[C@H]3CCCN3C1=O)C(=O)N[C@@H](CO)C(=O)N[C@@H](C)C(=O)N1CCC[C@@H]1C(=O)N[C@@H](CCCNC(C)C)C(=O)N[C@@H](CCCNC(=N)N)C(=O)N[C@@H](Cc1ccc(O)cc1)C(=O)N2` [Ex. 1, cyclo(-Tyr^1-His^2-Tyr^3-Cys^4-Ser^5-Ala^6-^DPro^7-Orn(iPr)^8-Arg^9-Tyr^10-Cys^11-Tyr^12-Gln^13-Lys(iPr)^14-^DPro^15-Pro^16-), disulfide bond between Cys^4 and Cys^11] (cyclo(YHYCSA[dP][Orn(iPr)]RYCYQ[Lys(iPr)][dP]P); disulfide 4-11), in data set [1] (setting [3]), the IC50 was 0.42 ± 0.1 nM. Besides, the “CLiv, human (allometric scaled)” value in data set [2] is 1.83 mL/min/kg.

For `COc1ccc(C[C@@H]2NC(=O)[C@H](Cc3c[nH]cn3)NC(=O)[C@H](Cc3ccc(O)cc3)NC(=O)[C@@H]3CCCN3C(=O)[C@H]3CCCN3C(=O)[C@H](CCCCNC(C)C)NC(=O)[C@H](CCC(N)=O)NC(=O)[C@H](Cc3ccc(O)cc3)NC(=O)[C@@H]3CSSC[C@H](NC2=O)C(=O)N[C@@H](CO)C(=O)N[C@@H](C)C(=O)N2CCC[C@@H]2C(=O)N[C@@H](CCCNC(C)C)C(=O)N[C@@H](CCCNC(=N)N)C(=O)N[C@@H](Cc2ccc(O)cc2)C(=O)N3)cc1` [Ex. 2, cyclo(-Tyr^1-His^2-Tyr(Me)^3-Cys^4-Ser^5-Ala^6-^DPro^7-Orn(iPr)^8-Arg^9-Tyr^10-Cys^11-Tyr^12-Gln^13-Lys(iPr)^14-^DPro^15-Pro^16-), disulfide bond between Cys^4 and Cys^11] (cyclo(YHY(Me)CSA[dP][Orn(iPr)]RYCYQ[Lys(iPr)][dP]P); disulfide 4-11), the IC50 in data set [1] (setting [3]) stood at 0.69 ± 0.43 nM. Further, in data set [2], the “CLiv, human (allometric scaled)” value was 1.4 mL/min/kg.

For the compound `COc1ccc(C[C@H]2NC(=O)[C@H](C)NC(=O)[C@H](CO)NC(=O)[C@@H]3CSSC[C@H](NC(=O)[C@H](Cc4ccc(O)cc4)NC(=O)[C@H](CCCNC(=N)N)NC(=O)[C@H](CCCNC(C)C)NC2=O)C(=O)N[C@@H](Cc2ccc(O)cc2)C(=O)N[C@@H](CCC(N)=O)C(=O)N[C@@H](CCCCNC(C)C)C(=O)N2CCC[C@@H]2C(=O)N2CCC[C@H]2C(=O)N[C@@H](Cc2ccc(O)cc2)C(=O)N[C@@H](Cc2c[nH]cn2)C(=O)N[C@@H](C)C(=O)N3)cc1` [Ex. 4, cyclo(-Tyr^1-His^2-Ala^3-Cys^4-Ser^5-Ala^6-^DTyr(Me)^7-Orn(iPr)^8-Arg^9-Tyr^10-Cys^11-Tyr^12-Gln^13-Lys(iPr)^14-^DPro^15-Pro^16-), disulfide bond between Cys^4 and Cys^11] (cyclo(YHACSA[dY](Me)[Orn(iPr)]RYCYQ[Lys(iPr)][dP]P); disulfide 4-11), in data set [1] (setting [3]), the IC50 amounted to 0.18 ± 0.09 nM. In addition, the “CLiv, human (allometric scaled)” value in data set [2] was 1.57 mL/min/kg.

Take `COc1ccc(C[C@@H]2NC(=O)[C@H](Cc3c[nH]cn3)NC(=O)[C@H](Cc3ccc(O)cc3)NC(=O)[C@@H]3CCCN3C(=O)[C@H]3CCCN3C(=O)[C@H](CCCCNC(C)C)NC(=O)[C@H](CCC(N)=O)NC(=O)[C@H](Cc3ccc(O)cc3)NC(=O)[C@@H]3CSSC[C@H](NC2=O)C(=O)N[C@@H](CO)C(=O)N[C@@H](C)C(=O)N[C@H](Cc2ccc(OC)cc2)C(=O)N[C@@H](CCCNC(C)C)C(=O)N[C@@H](CCCNC(=N)N)C(=O)N[C@@H](Cc2ccc(O)cc2)C(=O)N3)cc1` [Ex. 6, cyclo(-Tyr^1-His^2-Tyr(Me)^3-Cys^4-Ser^5-Ala^6-^DTyr(Me)^7-Orn(iPr)^8-Arg^9-Tyr^10-Cys^11-Tyr^12-Gln^13-Lys(iPr)^14-^DPro^15-Pro^16-), disulfide bond between Cys^4 and Cys^11] (cyclo(YHY(Me)CSA[dY](Me)[Orn(iPr)]RYCYQ[Lys(iPr)][dP]P); disulfide 4-11): the IC50 in data set [1] turned out to be 0.09 ± 0.09 nM. Moreover, the “CLiv, human (allometric scaled)” value in data set [2] is 5.18 mL/min/kg.
